Results from patent US20200187502A1, “MICROBIOCIDAL OXADIAZOLE DERIVATIVES” (SYNGENTA PARTICIPATIONS AG, priority 2017, published 2020).

Key:
[1] = test system: Puccinia recondita f. Sp. Tritici; assay: Fungicidal activity, wheat leaf disc preventative (brown rust); type: in vivo; conditions: foliar, 200 ppm in the applied formulation, wheat leaf segments cv. Kanzler, compared to untreated control, 7 to 9 days after application, read-out: disease control
Summary of the method: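 Wheat cv. Kanzler leaf segments on agar were sprayed with formulated compound in water, then inoculated with spores 1 day later. Incubated at 19° C, 75% rh, 12 h light/12 h dark; percent disease control versus untreated scored 7 to 9 days after application.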

[2] = test system: Puccinia recondita f. Sp. Tritici; assay: Fungicidal activity, wheat leaf disc curative (brown rust); type: in vivo; conditions: foliar, 200 ppm in the applied formulation, wheat leaf segments cv. Kanzler, curative (applied 1 day after inoculation), compared to untreated control, 6 to 8 days after application, read-out: disease control
Summary of the method: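 Read-out is percent disease control relative to untreated segments, assessed 6 to 8 days after treatment once check disease is adequate. Kanzler wheat leaf segments on agar receive fungal spores, then test compound (DMSO stock diluted in 0.025% Tween20 or water) 1 day later, under 19° C and 75% relative humidity.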

[3] = test system: Phakopsora pachyrhizi; assay: Fungicidal activity, soybean leaf disc preventative (Asian soybean rust); type: in vivo; conditions: foliar, 200 ppm in the applied formulation, soybean leaf disks, compared to untreated control, 12 to 14 days after application, read-out: disease control
Procedure: Leaf disks or leaf segments of various plant species are cut from plants grown in a greenhouse. The cut leaf disks or segments are placed in multiwell plates (24-well format) onto water agar. The leaf disks are sprayed with a test solution before (preventative) or after (curative) inoculation. Compounds to be tested are prepared as DMSO solutions (max. 10 mg/ml) which are diluted to the appropriate concentration with 0.025% Tween20 just before spraying. The inoculated leaf disks or segments are incubated under defined conditions (temperature, relative humidity, light, etc.) according to the respective test system. A single evaluation of disease level is carried out 3 to 14 days after inoculation, depending on the pathosystem. Percent disease control relative to the untreated check leaf disks or segments is then calculated.
Soybean leaf disks are placed on water agar in multiwell plates (24-well format) and sprayed with the formulated test compound diluted in water. One day after application leaf discs are inoculated by spraying a spore suspension on the lower leaf surface. After an incubation period in a climate cabinet of 24-36 hours in darkness at 20° C. and 75% rh leaf disc are kept at 20° C. with 12 h light/day and 75% rh. The activity of a compound is assessed as percent disease control compared to untreated when an appropriate level of disease damage appears in untreated check leaf disks (12 to 14 days after application).
The following compounds at 200 ppm in the applied formulation give at least 80% disease control in this test when compared to untreated control leaf disks under the same conditions, which show extensive disease development.

[4] = test system: Glomerella lacenarium (Colletotrichum lacenarium); assay: Fungicidal activity, liquid culture, cucumber preventative (anthracnose); type: cell-based; conditions: 20 ppm in the applied formulation, liquid culture in PDB, inhibition of growth measured photometrically 3 to 4 days after application, compared to untreated control, read-out: disease control
Summary of the method: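 Photometric measurement of fungal growth inhibition 3 to 4 days after application gives percent activity relative to untreated check. Conidia were suspended in potato dextrose broth and combined with DMSO compound solutions; incubation at 24° C.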

CNC(=O)N(Cc1ccc(-c2noc(C(F)(F)F)n2)s1)C(C)C [Compound 4.13, 1-isopropyl-3-methyl-1-[[5-[5-(trifluoromethyl)-1,2,4-oxadiazol-3-yl]-2-thienyl]methyl]urea]
≥ 80%: pest or weed control at 200 ppm [1] | pest or weed control at 200 ppm [2] | pest or weed control at 200 ppm [3] | inhibition of growth at 20 ppm [4]

COCCS(=O)(=O)N(C)Cc1ccc(-c2noc(C(F)(F)F)n2)s1 [Compound 6.21, 2-methoxy-N-methyl-N-[[5-[5-(trifluoromethyl)-1,2,4-oxadiazol-3-yl]-2-thienyl]methyl]ethanesulfonamide]
≥ 80%: pest or weed control at 200 ppm [1] | pest or weed control at 200 ppm [2] | pest or weed control at 200 ppm [3] | inhibition of growth at 20 ppm [4]

CCNC(=O)N(Cc1ccc(-c2noc(C(F)(F)F)n2)s1)OC [Compound 1.51, 3-ethyl-1-methoxy-1-[[5-[5-(trifluoromethyl)-1,2,4-oxadiazol-3-yl]-2-thienyl]methyl]urea]
≥ 80%: pest or weed control at 200 ppm [1] | pest or weed control at 200 ppm [2] | pest or weed control at 200 ppm [3] | inhibition of growth at 20 ppm [4]

CCCC(=O)N(Cc1ccc(-c2noc(C(F)(F)F)n2)s1)C1CC1 [Compound 4.54, N-cyclopropyl-N-[[5-[5-(trifluoromethyl)-1,2,4-oxadiazol-3-yl]-2-thienyl]methyl]butanamide]
≥ 80%: pest or weed control at 200 ppm [1] | pest or weed control at 200 ppm [2] | pest or weed control at 200 ppm [3] | inhibition of growth at 20 ppm [4]

CCN(Cc1ccc(-c2noc(C(F)(F)F)n2)s1)C(=O)NC [Compound 4.5, 1-ethyl-3-methyl-1-[[5-[5-(trifluoromethyl)-1,2,4-oxadiazol-3-yl]-2-thienyl]methyl]urea]
≥ 80%: pest or weed control at 200 ppm [1] | pest or weed control at 200 ppm [2] | pest or weed control at 200 ppm [3] | inhibition of growth at 20 ppm [4]

COC(C)C(=O)N(C)Cc1ccc(-c2noc(C(F)(F)F)n2)s1 (stereo not drawn) [Compound 4.15, 2-methoxy-N-methyl-N-[[5-[5-(trifluoromethyl)-1,2,4-oxadiazol-3-yl]-2-thienyl]methyl]propanamide]
≥ 80%: pest or weed control at 200 ppm [1] | pest or weed control at 200 ppm [2] | pest or weed control at 200 ppm [3] | inhibition of growth at 20 ppm [4]

CCN(Cc1ccc(-c2noc(C(F)(F)F)n2)s1)C(=O)C1(C)COC1 [Compound 5.14, N-ethyl-3-methyl-N-[[5-(5-(trifluoromethyl)-1,2,4-oxadiazol-3-yl]-2-thienyl]methyl]oxetane-3-carboxamide]
≥ 80%: pest or weed control at 200 ppm [1] | pest or weed control at 200 ppm [2] | pest or weed control at 200 ppm [3] | inhibition of growth at 20 ppm [4]

C#CCNC(=O)N(Cc1ccc(-c2noc(C(F)(F)F)n2)s1)C1CC1 [Compound 4.92, 1-cyclopropyl-3-prop-2-ynyl-1-[[5-[5-(trifluoromethyl)-1,2,4-oxadiazol-3-yl]-2-thienyl]methyl]urea]
≥ 80%: pest or weed control at 200 ppm [1] | pest or weed control at 200 ppm [2] | pest or weed control at 200 ppm [3] | inhibition of growth at 20 ppm [4]

CN(Cc1ccc(-c2noc(C(F)(F)F)n2)s1)C(=O)C1CC1 [Compound 5.1, N-methyl-N-[[5-[5-(trifluoromethyl)-1,2,4-oxadiazol-3-yl]-2-thienyl]methyl]cyclopropanecarboxamide]
≥ 80%: pest or weed control at 200 ppm [1] | pest or weed control at 200 ppm [2] | pest or weed control at 200 ppm [3] | inhibition of growth at 20 ppm [4]

COCCC(=O)N(Cc1ccc(-c2noc(C(F)(F)F)n2)s1)OCC(F)F [Compound 4.64, N-(2,2-difluoroethoxy)-3-methoxy-N-[[5-[5-(trifluoromethyl)-1,2,4-oxadiazol-3-yl]-2-thienyl]methyl]propanamide]
≥ 80%: pest or weed control at 200 ppm [1] | pest or weed control at 200 ppm [2] | pest or weed control at 200 ppm [3] | inhibition of growth at 20 ppm [4]

COCCCC(=O)N(Cc1ccc(-c2noc(C(F)(F)F)n2)s1)C1CC1 [Compound 4.58, N-cyclopropyl-4-methoxy-N-[[5-[5-(trifluoromethyl)-1,2,4-oxadiazol-3-yl]-2-thienyl]methyl]butanamide]
≥ 80%: pest or weed control at 200 ppm [1] | pest or weed control at 200 ppm [2] | pest or weed control at 200 ppm [3] | inhibition of growth at 20 ppm [4]

CCC(C)C(=O)N(Cc1ccc(-c2noc(C(F)(F)F)n2)s1)OC (stereo not drawn) [Compound 1.19, N-methoxy-2-methyl-N-[[5-[5-(trifluoromethyl)-1,2,4-oxadiazol-3-yl]-2-thienyl]methyl]butanamide]
≥ 80%: pest or weed control at 200 ppm [1] | pest or weed control at 200 ppm [2] | pest or weed control at 200 ppm [3] | inhibition of growth at 20 ppm [4]

CON(Cc1ccc(-c2noc(C(F)(F)F)n2)s1)C(=O)C1(C)COC1 [Compound 1.16, N-methoxy-3-methyl-N-[[5-[5-(trifluoromethyl)-1,2,4-oxadiazol-3-yl]-2-thienyl]methyl]oxetane-3-carboxamide]
≥ 80%: pest or weed control at 200 ppm [1] | pest or weed control at 200 ppm [2] | pest or weed control at 200 ppm [3] | inhibition of growth at 20 ppm [4]

CON(Cc1ccc(-c2noc(C(F)(F)F)n2)s1)C(=O)CC(F)(F)F [Compound 1.18, 3,3,3-trifluoro-N-methoxy-N-[[5-[5-(trifluoromethyl)-1,2,4-oxadiazol-3-yl]-2-thienyl]methyl]propanamide]
≥ 80%: pest or weed control at 200 ppm [1] | pest or weed control at 200 ppm [2] | pest or weed control at 200 ppm [3] | inhibition of growth at 20 ppm [4]

COCCC(=O)N(Cc1ccc(-c2noc(C(F)(F)F)n2)s1)OC [Compound 1.11, N,3-dimethoxy-N-[[5-[5-(trifluoromethyl)-1,2,4-oxadiazol-3-yl]-2-thienyl]methyl]propanamide]
≥ 80%: pest or weed control at 200 ppm [1] | pest or weed control at 200 ppm [2] | pest or weed control at 200 ppm [3] | inhibition of growth at 20 ppm [4]

CON(Cc1ccc(-c2noc(C(F)(F)F)n2)s1)C(C)=O [Compound 1.25, N-methoxy-N-[[5-[5-(trifluoromethyl)-1,2,4-oxadiazol-3-yl]-2-thienyl]methyl]acetamide]
≥ 80%: pest or weed control at 200 ppm [1] | pest or weed control at 200 ppm [2] | pest or weed control at 200 ppm [3] | inhibition of growth at 20 ppm [4]

COC(C)C(=O)N(Cc1ccc(-c2noc(C(F)(F)F)n2)s1)OC (stereo not drawn) [Compound 1.1, N,2-dimethoxy-N-[[5-[5-(trifluoromethyl)-1,2,4-oxadiazol-3-yl]-2-thienyl]methyl]propanamide]
≥ 80%: pest or weed control at 200 ppm [1] | pest or weed control at 200 ppm [2] | pest or weed control at 200 ppm [3] | inhibition of growth at 20 ppm [4]

CCNC(=O)N(Cc1ccc(-c2noc(C(F)(F)F)n2)s1)C1CC1 [Compound 4.87, 1-cyclopropyl-3-ethyl-1-[[5-[5-(trifluoromethyl)-1,2,4-oxadiazol-3-yl]-2-thienyl]methyl]urea]
≥ 80%: pest or weed control at 200 ppm [1] | pest or weed control at 200 ppm [2] | pest or weed control at 200 ppm [3] | inhibition of growth at 20 ppm [4]

CON(Cc1ccc(-c2noc(C(F)(F)F)n2)s1)C(=O)N1CCC2(CC2)C1 [Compound 1.58, N-methoxy-N-[[5-[5-(trifluoromethyl)-1,2,4-oxadiazol-3-yl]-2-thienyl]methyl]-5-azaspiro[2.4]heptane-5-carboxamide]
≥ 80%: pest or weed control at 200 ppm [1] | pest or weed control at 200 ppm [2] | pest or weed control at 200 ppm [3] | inhibition of growth at 20 ppm [4]

CC(=O)NCC(=O)N(C)Cc1ccc(-c2noc(C(F)(F)F)n2)s1 [Compound 4.33, 2-acetamido-N-methyl-N-[[5-[5-(trifluoromethyl)-1,2,4-oxadiazol-3-yl]-2-thienyl]methyl]acetamide]
≥ 80%: pest or weed control at 200 ppm [1] | pest or weed control at 200 ppm [2] | pest or weed control at 200 ppm [3] | inhibition of growth at 20 ppm [4]

O=C(NCc1ccc(-c2noc(C(F)(F)F)n2)s1)c1ccccc1Cl [Compound 3.9, 2-chloro-N-[[5-[5-(trifluoromethyl)-1,2,4-oxadiazol-3-yl]-2-thienyl]methyl]benzamide]
≥ 80%: pest or weed control at 200 ppm [1] | pest or weed control at 200 ppm [2] | pest or weed control at 200 ppm [3] | inhibition of growth at 20 ppm [4]
